Results reported in patent publication US20260374766A1, “METHODS FOR TREATING CANCER” (Antares Therapeutics, Inc., priority 2022, published 2026).
Read-outs that look alike come from different tables or passages of the source.

Assays:
[1] = molecular target: T1, p53 Y220C mutant protein (amino acid residues 94-293) (Homo sapiens, UniProt P04637, Y220C); test: Surface Plasmon Resonance (SPR) assay, Kd_kinetic; format: binding; conditions: SPR, p53 Y220C, read-out: SPR P53 Y220C KD kinetic
T1 construct: p53 Y220C mutant protein (amino acid residues 94-293)
In short: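 Temperature held at 16 or 20 °C during Biacore 8K runs. Buffer: 50 mM Tris, pH 7.5, 100 mM NaCl, 1 mM DTT, 0.01% Brij35, 0.05% Tween-20, 1% DMSO.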

H1299 p53 R273H = test: Cell Proliferation Assay (CellTiter-Glo, CTG), H1299 p53 R273H (NClH1299-inducible p53 R273H); format: cell-based; conditions: Homo sapiens, NCI-H1299, 120 h, CellTiter-Glo, 5 days
In short: (§1)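 NClH1299 lines stably transduced with Tet-inducible p53 Y220C or R273H, plus NUGC3, were treated with compound for 5 days at 250-500 cells/well. IC50 derived from CellTiter-Glo luminescent signal after 10 min room-temperature incubation.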

p53 Y220C = p53 Y220C (Homo sapiens, UniProt P04637, Y220C); test: Luciferase Reporter Assay (Luc), p53 response element, NClH1299 cells with inducible p53 Y220C; format: cell-based; conditions: luciferase reporter, NClH1299 inducible p53 Y220C, 6 hour; for AC50: read-out: Luc P53 Y220C AC50
In short: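 24 h dox pre-induction (0.5 ug/mL), then 6 h compound; One-Glo luminescent read.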

H1299 p53 Y220C = test: Cell Proliferation Assay (CellTiter-Glo, CTG), H1299 p53 Y220C (NClH1299-inducible p53 Y220C); format: cell-based; conditions: Homo sapiens, NCI-H1299, 120 h, CellTiter-Glo, 5 days
In short: as §1

NUGC3 p53 Y220C = test: Cell Proliferation Assay (CellTiter-Glo, CTG), NUGC3 p53 Y220C; format: cell-based; conditions: Homo sapiens, NUGC-3, 120 h, CellTiter-Glo, 5 days
In short: as §1

[2] = molecular target: T1, p53 Y220C mutant protein (amino acid residues 94-293); test: Thermal Shift Assay (TSA), dTM; format: binding; conditions: for ΔTm at 100 µM: 100 uM compound; for ΔTm at 10 µM: 10 uM compound
In short: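 Differential scanning fluorimetry with Sypro Orange on 5 μM p53 Y220C residues 94-293, compound tested at 10 μM or 100 μM after 3 hours at 20 °C; buffer 20 mM HEPES, pH7.4, 100 mM NaCl, 1% DMSO.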

[3] = 10 uM tool compound as positive control
[4] = thermal shift, read-out: TSA P53 Y220C dTM (100 uM)
[5] = thermal shift, read-out: TSA P53 Y220C dTM (10 uM)
[6] = NClH1299-inducible p53 R273H cells
[7] = NClH1299-inducible p53 Y220C cells
[8] = p53 Y220C, read-out: TSA P53 Y220C dTM

Structure (SMILES) | Kd ([1]; kinetic KD) | IC50 (H1299 p53 R273H; H1299 p53 R273H) | Emax (p53 Y220C; [3]) | AC50 (p53 Y220C) | IC50 (H1299 p53 Y220C; H1299 p53 Y220C) | IC50 (NUGC3 p53 Y220C; NUGC3 p53 Y220C) | ΔTm at 100 µM [2, 4] | ΔTm at 10 µM [2, 5] | Kd [1] | IC50 (H1299 p53 R273H; [6]) | AC50 (p53 Y220C; AC50) | Emax (p53 Y220C; Emax) | IC50 (H1299 p53 Y220C; [7]) | IC50 (NUGC3 p53 Y220C; NUGC3 cells) | ΔTm at 10 µM [2, 8] | ΔTm at 100 µM [2, 8]
CNC(=O)c1ccc(NCC#Cc2nc3c(N[C@@H]4CCN(C)C[C@@H]4F)cccn3c2C(F)(F)F)c(OC)c1 [Example 97, 4-{[3-(8-{[(3S,4R)-3-fluoro-1-methylpiperidin-4-yl]amino}-3-(trifluoromethyl)imidazo [1,2-a]pyridin-2-yl)prop-2-yn-1-yl]amino}-3-methoxy-N-methylbenzamide] | 100 to 1000 nM | ≥ 10000 nM | < 70% | > 3000 nM | > 3000 nM | > 3000 nM | 5 to 10 °C |  |  |  |  |  |  |  |  | 
CNC(=O)c1ccc(NCC#Cc2nn3c(N[C@@H]4CCN(C)C[C@@H]4F)cccc3c2SC(F)F)c(OC)c1 [Example 219, 4-[(3-{3-[(difluoromethyl)sulfanyl]-7-{[(3S,4R)-3-fluoro-1-methylpiperidin-4-yl]amino}pyrazolo[1,5-a]pyridin-2-yl}prop-2-yn-1-yl)amino]-3-methoxy-N-methylbenzamide] | < 10 nM | 5000 to 8000 nM | 80 to 90% | < 750 nM | < 750 nM | < 750 nM | 5 to 10 °C | 5 to 10 °C |  |  |  |  |  |  |  | 
CNC(=O)c1ccc(OC)c(NCC#Cc2nc3c(N[C@@H]4CCNC[C@@H]4F)cccn3c2CC(F)(F)F)c1 [Example 222] | < 10 nM | ≥ 10000 nM | < 70% | > 3000 nM | 1500 to 3000 nM | < 750 nM | ≥ 10 °C | ≥ 10 °C |  |  |  |  |  |  |  | 
CNC(=O)c1ccc(NCC#Cc2nc3c(N[C@H]4C[C@@H]5CC[C@@H](N5)[C@H]4F)cccn3c2SC(F)(F)F)c(OC)c1 [Example 201] | < 10 nM | 5000 to 8000 nM | 80 to 90% | < 750 nM | < 750 nM | < 750 nM | ≥ 10 °C | ≥ 10 °C |  |  |  |  |  |  |  | 
CNC(=O)c1ccc(NCC#Cc2nc3c(N[C@H]4CCc5nncn5C4)cccn3c2SC(F)(F)F)c(OC)c1 [Example 191] | < 10 nM | ≥ 10000 nM | < 70% | > 3000 nM | > 3000 nM | > 3000 nM | ≥ 10 °C | 5 to 10 °C |  |  |  |  |  |  |  | 
COc1cc(S(C)(=O)=O)ccc1NCC#Cc1nc2c(N[C@@H]3CCN(C)C[C@@H]3F)cccn2c1SC(F)(F)F [Example 82, (3S,4R)-3-fluoro-N-(2-{3-[(4-methanesulfonyl-2-methoxyphenyl)amino]prop-1-yn-1-yl}-3-[(trifluoromethyl)sulfanyl]imidazo[1,2-a]pyridin-8-yl)-1-methylpiperidin-4-amine] | < 10 nM | 8000 to 10000 nM | 80 to 90% | < 750 nM | < 750 nM | < 750 nM | ≥ 10 °C |  |  |  |  |  |  |  |  | 
COc1cc(S(C)(=O)=O)ccc1NCC#Cc1nc2c(N[C@@H]3CCN(C)C[C@@H]3F)cccn2c1CC(F)(F)F [Example 1, (3S,4R)-3-fluoro-N-(2-{3-[(4-methanesulfonyl-2-methoxyphenyl)amino]prop-1-yn-1-yl}-3-(2,2,2-trifluoroethyl)imidazo[1,2-a]pyridin-8-yl)-1-methylpiperidin-4-amine] | < 10 nM | 8000 to 10000 nM | 70 to 80% | 750 to 1500 nM | < 750 nM | 750 to 1500 nM | ≥ 10 °C |  |  |  |  |  |  |  |  | 
CNC(=O)c1ccc(NCC#Cc2nc3c(NCC4(F)CNC4)cccn3c2SC(F)(F)F)c(OC)c1 [Example 197] | 10 to 100 nM | ≥ 10000 nM | 80 to 90% | > 3000 nM | > 3000 nM | > 3000 nM | ≥ 10 °C | 5 to 10 °C |  |  |  |  |  |  |  | 
CNC(=O)c1ccc(NCC#Cc2cc3c(N[C@@H]4CCNC[C@@H]4F)nccn3c2SC(F)(F)F)c(OC)c1 [Example 295] |  |  |  |  |  |  |  |  | < 10 nM | 8000 to 10000 nM | < 750 nM | > 90% | < 750 nM | < 750 nM | ≥ 10 °C | 
CNC(=O)c1cc(NCC#Cc2nc3c(N[C@@H]4CCN(C)C[C@@H]4F)cccn3c2SC(F)(F)F)c2nccn2c1 [Example 277] |  |  |  |  |  |  |  |  | < 10 nM | ≥ 10000 nM | < 750 nM | > 90% | < 750 nM | < 750 nM | ≥ 10 °C | 
CNC(=O)c1ccc(OC)c(NCC#Cc2nc3c(N[C@@H]4CCNC[C@@H]4F)nccn3c2SC(F)(F)F)c1 [Example 307] |  |  |  |  |  |  |  |  | < 10 nM | ≥ 10000 nM | < 750 nM | 80 to 90% | < 750 nM | < 750 nM | ≥ 10 °C | 
CNC(=O)c1ccc(NCC#Cc2nc3c(N[C@H]4CCN(C)C4)cccn3c2SC(F)(F)F)c(OC)c1 [Example 243] |  |  |  |  |  |  |  |  | < 10 nM | ≥ 10000 nM | 1500 to 3000 nM | 70 to 80% | 750 to 1500 nM | 750 to 1500 nM | 5 to 10 °C | ≥ 10 °C
COc1cc(S(=O)(=O)C(C)C)ccc1NCC#Cc1nc2c(N[C@@H]3CCN(C)C[C@@H]3F)cccn2c1SC(F)(F)F [Example 78, (3S,4R)-3-fluoro-N-[2-(3-{[2-methoxy-4-(propane-2-sulfonyl)phenyl]amino}prop-1-yn-1-yl)-3-[(trifluoromethyl)sulfanyl]imidazo[1,2-a]pyridin-8-yl]-1-methylpiperidin-4-amine] | < 10 nM | ≥ 10000 nM | 80 to 90% | < 750 nM | < 750 nM | < 750 nM | ≥ 10 °C |  |  |  |  |  |  |  |  | 
CCNC(=O)c1ccc(NCC#Cc2nn3c(N[C@@H]4CCN(C)C[C@@H]4F)cccc3c2SC(F)F)c(OC)c1 [Example 317] |  |  |  |  |  |  |  |  | < 10 nM | ≥ 10000 nM | < 750 nM | 80 to 90% | < 750 nM | < 750 nM | ≥ 10 °C | 
COc1cc2c(cc1NCC#Cc1nc3c(N[C@@H]4CCN(C)C[C@@H]4F)cccn3c1CC(F)(F)F)CCNC2=O [Example 110, 6-{[3-(8-{[(3S,4R)-3-fluoro-1-methylpiperidin-4-yl]amino}-3-(2,2,2-trifluoroethyl)imidazo[1,2-a]pyridin-2-yl)prop-2-yn-1-yl]amino}-7-methoxy-3,4-dihydro-2H-isoquinolin-1-one] | < 10 nM | 5000 to 8000 nM | 80 to 90% | < 750 nM | < 750 nM | < 750 nM | ≥ 10 °C |  |  |  |  |  |  |  |  | 
CNC(=O)c1ccc(NCC#Cc2nc3c(N[C@@H]4CCN(C)C[C@@H]4F)cccn3c2CC(F)(F)F)c(C#N)c1 [Example 56, 3-cyano-4-{[3-(8-{[(3S,4R)-3-fluoro-1-methylpiperidin-4-yl]amino}-3-(2,2,2-trifluoroethyl)imidazo[1,2-a]pyridin-2-yl)prop-2-yn-1-yl]amino}-N-methylbenzamide] | 10 to 100 nM | ≥ 10000 nM | 80 to 90% | > 3000 nM | > 3000 nM | > 3000 nM | ≥ 10 °C |  |  |  |  |  |  |  |  | 
CNC(=O)c1ccc(NCC#Cc2nc3c(N[C@@H]4CCN(C)C[C@@H]4F)cccn3c2CC(F)(F)F)c(C(F)(F)F)c1 [Example 54, 4-{[3-(8-{[(3S,4R)-3-fluoro-1-methylpiperidin-4-yl]amino}-3-(2,2,2-trifluoroethyl)imidazo[1,2-a]pyridin-2-yl)prop-2-yn-1-yl]amino}-N-methyl-3-(trifluoromethyl)benzamide] | 10 to 100 nM | ≥ 10000 nM | 70 to 80% | > 3000 nM | > 3000 nM | > 3000 nM | ≥ 10 °C |  |  |  |  |  |  |  |  | 
